Measured values as given in patent publication US11753376B2, “Benzyloxy pyridine derivatives and uses thereof” (AUTOTAC INC., priority 2021, dated 2023).

System: intracellular autophagy flux (LC3-II) in HEK293T cell line
Experiment: Evaluation of intracellular autophagy activity (autophagy flux) by immunoblotting
Format: cell-based, human
Conditions: HCQ 5 μM, 24 hours
Protocol: In order to evaluate the autophagy flux activity efficacy by the compounds, the HEK293T cell line, which is a cell line derived from a human embryonic kidney-derived cell, was cultured using a DMEM medium containing 10% FBS and 1% streptomycin/penicillin in an incubator with 5% carbon dioxide. In order to measure the autophagy flux activity according to the treatment of the compounds synthesized in the above examples, each cell was dispensed in a 6-well plate. Additional incubation was carried out for 24 hours so that the cells were completely attached to the surface of the plate. Cells were collected after treatment with the compound (5 μM) alone or with the lysosomal inhibitor, hydroxychloroquine (HCQ) (5 μM) for 24 hours to determine whether the compound increases autophagy flux. […] Based on the measured total protein concentration, a sample buffer was added to each sample and reacted at 100° C. for 5 minutes. […]
FIG. 2 is a result of immunoblotting showing the efficacy of the compound (ATB1110) to activate intracellular autophagy flux. […] As HCQ was treated, the level of LC3-II, a marker of autophagy activity, was increased, and the difference between LC3-II in the untreated state and the treated state was measured. […]

CCN(CCO)CCCC(C)Nc1ccnc2cc(Cl)ccc12 (stereo not shown) [HCQ, hydroxychloroquine]
level of LC3-II, a marker of autophagy activity: increased
